Experimental data as given in PMC12169615, “Fluorescent 4‑Nitrobenzo-2-oxa-1,3-diazole-Coupled Bile Acids as Probe Substrates of Hepatic and Intestinal Bile Acid Transporters of the Solute Carrier Families SLC10 and SLCO” (Journal of Medicinal Chemistry, 2025).
Several values for one entry are separate records, joined by “and”; a condition that tells them apart may be missing. Equal entries are not always repeated.

What was measured:
[1] = Excitation-emission spectra of the 3-NBD-BA; format: physicochemical; details: NaCl-transport buffer, 1 pM compound concentration
Procedure: After the synthesis of this set of unconjugated as well as T- and G-conjugated 3β- and 3α-NBD-BA derivatives, namely 3β-NBD-CA (6a), 3β-NBD-CDCA (6b), 3β-NBD-DCA (6c), 3α-NBD-CA (6d), 3β-NBD-TCA (14a), 3β-NBD-TCDCA (14b), 3α-NBD-TCA (14d), 3β-NBD-GCA (16a), and 3α-NBD-GCA (16d) comprehensive transport studies were conducted with all fluorescent BA listed in Figure . Prior to the transport studies, the excitation and emission spectra of all fluorescent BA derivatives were determined to obtain the optimal emission and excitation wavelengths for subsequent fluorescent measurements at the fluorescence microscope and the fluorescent reader (Figure ). The excitation maxima (ExPeak) were at 468–470 nm and the emission maxima (EmPeak) at 538–540 nm for all fluorescent NBD-BA.
2 Excitation–emission-spectra of the 3-NBD-BA measured in NaCl-transport buffer at 1 pM compound concentration. The excitation (dotted line, ExPeak) and emission (solid line, EmPeak) peak wavelengths (in nm) are indicated for each compound. RFU, relative fluorescence units. […]

[2] = target: T1, mouse mAsbt (Mus musculus, UniProt P70172); assay: Quantitative uptake of 3-NBD-BA in carrier-expressing HEK293 cells (fluorescence reader); format: cell-based; set-up: stably transfected with the full open reading frames of human NTCP, ASBT, SOAT, OATP1B1, and OATP1B3 as well as mouse mNtcp and mAsbt; expressed in transfected cells; details: mAsbt-HEK293, 25 μM, 37 °C, +Na+ vs -Na+
T1 sequence (P70172 1-348): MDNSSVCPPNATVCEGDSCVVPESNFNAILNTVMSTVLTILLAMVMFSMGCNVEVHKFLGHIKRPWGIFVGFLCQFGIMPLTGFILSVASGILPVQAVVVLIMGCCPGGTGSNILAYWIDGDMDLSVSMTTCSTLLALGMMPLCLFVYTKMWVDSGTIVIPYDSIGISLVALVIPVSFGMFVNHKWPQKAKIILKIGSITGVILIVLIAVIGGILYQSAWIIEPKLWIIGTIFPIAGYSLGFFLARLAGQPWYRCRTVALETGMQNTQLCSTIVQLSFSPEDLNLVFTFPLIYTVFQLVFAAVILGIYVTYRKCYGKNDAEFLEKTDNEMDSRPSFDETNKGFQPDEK
Procedure: For quantification of the transport activity of the synthesized NBD-BA, all cell lines were seeded on 96 well plates and transport experiments were performed under the same control conditions (-Na^+ control for the SLC10 carriers and nontransfected HEK293 cells for the OATP carriers) as before (Figure ). For each NBD-BA, a substrate concentration of 25 μM was used, and the uptake phase was terminated after 10 min of incubation at 37 °C. […] The transport ratios ranged from 3-fold to 39-fold. In direct comparison, 3α-NBD-TCA (14d) and 3α-NBD-GCA (16d) were transported better than their 3β-analogs 3β-NBD-TCA (14a) and 3β-NBD-GCA (16a), respectively, clearly pointing to a preference for the α-position over the β-position of the 3-NBD-label. In direct comparison between the taurine- or glycine-conjugation of the respective NBD-BA, there was a clear preference for 3α-NBD-GCA (16d) over 3α-NBD-TCA (14d), at least for NTCP and mAsbt, pointing to a favorable substrate recognition for glycine-conjugated NBD-BA.
5 Quantitative uptake experiments with the 3-NBD-BA in HEK293 cells stably expressing the human carriers NTCP, ASBT, SOAT, OATP1B1, and OATP1B3, or the mouse carriers mNtcp and mAsbt. For the SLC10 carriers, all transport experiments were performed in the presence (filled bars) and the absence (hatched bars) of sodium. For the OATP carriers, uptake into carrier-expressing cells (filled bars) was compared to uptake into non-carrier-expressing HEK293 cells (hatched bars). All cell lines were incubated at 37 °C for 10 min with the indicated 3-NBD-BA at 25 μM. Then, cells were washed with PBS and subjected to fluorescence detection. The following fluorescent BA were analyzed: 3α-NBD-TCA (14d), 3β-NBD-TCA (14a), 3α-NBD-GCA (16d), 3β-NBD-GCA (16a), 3β-NBD-TCDCA (14b), 3β-NBD-CDCA (6b), 3β-NBD-DCA (6c), 3α-NBD-CA (6d), and 3β-NBD-CA (6a). Data represent means ± SD of triplicate determinations of representative experiments. […] RFU, relative fluorescence units. TEXT PRINTED IN THE PICTURE: 3α-NBD-TCA (14d): NTCP: 9 X; mNtcp: 30 X; ASBT: 2 X; mAsbt: 14 X | 3ß-NBD-TCA (14a): NTCP: 12 X; mNtcp: 20 X; mAsbt: 18 X | 3α-NBD-GCA (16d): NTCP: 27 X; mNtcp: 26 X; ASBT: 3 X; mAsbt: 39 X | 3ß-NBD-GCA (16a): NTCP: 15 X; mNtcp: 14 X; mAsbt: 5 X | 3ß-NBD-TCDCA (14b): NTCP: 5 X; mNtcp: 3 X; mAsbt: 4 X | 3ß-NBD-CDCA (6b): mNtcp: < 2 X; ASBT: < 2 X; mAsbt: < 2 X; OATP1B1: < 2 X; OATP1B3: < 2 X | 3ß-NBD-DCA (6c): mNtcp: < 2 X; ASBT: < 2 X; mAsbt: < 2 X | 3α-NBD-CA (6d): mNtcp: 2 X; mAsbt: 4 X | 3ß-NBD-CA (6a): NTCP: 2 X; mNtcp: 2 X; mAsbt: 2 X DOUBTS OF THE COPYIST ABOUT THIS PICTURE: The picture prints no panel letters, so the chart titles (NTCP, mNtcp, ASBT, mAsbt, OATP1B1, OATP1B3) are written in front of the values as the target. / Substance labels: the sign after '3' is printed like 'ß' and may be meant as 'β'. / The 'ns' marks and significance asterisks were left out as statistics. The SOAT chart prints only 'ns'.

[3] = logP(o/w), octanol/water partition; details: 1:1 mixture of water and 1-octanol, fluorescence detection or liquid scintillation; for logP: 1-octanol/water, LogP(o/w)
Procedure: 9 Membrane permeability of the 3-NBD-BA and logP(o/w) values. […] The lipophilic and hydrophilic phases were separated by centrifugation and both phases were analyzed by fluorescence detection or liquid scintillation, respectively.
All NBD-BA were diluted to 1 pM in STB, and […] and emission spectra were measured from 300 to 650 nm (Spark Multimode Microplate, Tecan, Männedorf, Switzerland). […] The [^3H]-CA was generously provided by Prof. Dr. Alan Hofmann, University of California (San Diego, United States).

Compound	Emission peak wavelength (EmPeak) [1] [nm]	Excitation peak wavelength (ExPeak) [1] [nm]	Specific transport ratio mAsbt (25µM/10 min uptake) [2]	logP [3]	LogP(o/w) [3]
7α-Hydroxy-3β-[(7-nitro-2,1,3-benzoxadiazol-4-yl)amino]-5β-cholan-24-oate [6b]	538	468	<2x x-fold		
C[C@H](CCC(=O)O)[C@H]1CC[C@H]2[C@@H]3[C@H](O)C[C@@H]4C[C@@H](Nc5ccc([N+](=O)[O-])c6nonc56)CC[C@]4(C)[C@H]3C[C@H](O)[C@]12C [6a, 7α,12α-Dihydroxy-3β-[(7-nitro-2,1,3-benzoxadiazol-4-yl)amino]-5β-cholan-24-oate]	538	468	2 x-fold and 2x x-fold	> 2	
C[C@H](CCC(=O)O)[C@H]1CC[C@H]2[C@@H]3[C@H](O)C[C@@H]4C[C@H](Nc5ccc([N+](=O)[O-])c6nonc56)CC[C@]4(C)[C@H]3C[C@H](O)[C@]12C [6d, 7α,12α-Dihydroxy-3α-[(7-nitro-2,1,3-benzoxadiazol-4-yl)amino]-5β-cholan-24-oate]	538	468	4 x-fold and 4x x-fold	2.8	
C[C@H](CCC(=O)NCCS(=O)(=O)[O-])[C@H]1CC[C@H]2[C@@H]3[C@H](O)C[C@@H]4C[C@@H](Nc5ccc([N+](=O)[O-])c6nonc56)CC[C@]4(C)[C@H]3C[C@H](O)[C@]12C.[Na+] [14a]	538	468	18x x-fold	0.14	
C[C@H](CCC(=O)NCCS(=O)(=O)[O-])[C@H]1CC[C@H]2[C@@H]3[C@H](O)C[C@@H]4C[C@H](Nc5ccc([N+](=O)[O-])c6nonc56)CC[C@]4(C)[C@H]3C[C@H](O)[C@]12C.[Na+] [14d]	538	468	14x x-fold	0.03	0.027
C[C@H](CCC(=O)NCC(=O)O)[C@H]1CC[C@H]2[C@@H]3[C@H](O)C[C@@H]4C[C@H](Nc5ccc([N+](=O)[O-])c6nonc56)CC[C@]4(C)[C@H]3C[C@H](O)[C@]12C [16d]	538	468	39x x-fold	0.462	
12α-Hydroxy-3β-[(7-nitro-2,1,3-benzoxadiazol-4-yl)amino]-5β-cholan-24-oate [6c]	538	468	<2x x-fold		2.147
C[C@H](CCC(=O)NCC(=O)O)[C@H]1CC[C@H]2[C@@H]3[C@H](O)C[C@@H]4C[C@@H](Nc5ccc([N+](=O)[O-])c6nonc56)CC[C@]4(C)[C@H]3C[C@H](O)[C@]12C [16a]	538	468	5x x-fold	-0.01	
